The values below come from patent US10273242B2, “Compound inhibiting activities of BTK and/or JAK3 kinases” (BEIJING HANMI PHARMACEUTICAL CO., LTD., priority 2013, dated 2019).

A word on the pIC50: it is −log10 of the IC50, conventionally taken in molar units. Low readings indicate a high IC50, high ones a low IC50.

One assay has as its target T1, JAK3 kinase (Homo sapiens, UniProt P52333).
T1 construct: purchased SignalChem J03-11G
Put plainly: JAK3 kinase activity inhibition assay (ADP-Glo). Type of assay: biochemical. Conditions: ATP 10 μM. The protocol:
The JAK3 kinase (purchased from SignalChem, No.: J03-11G) was diluted with reaction buffer (40 mM Tris-HCl, pH 7.5; 20 mM MgCl2, 0.1 mg/ml BSA; 1 mM DTT) to 2 times of the final concentration (which is 0.5 ng/μL) and added with 5 μL/well to a 96-well plate. The compounds of the present invention were serial diluted with deionized water to four times (i.e., 40 μM, 4 μM, 0.4 μM, 80 nM, 16 nM, 3.2 nM, respectively) of the final concentrations (10 μM, 1 μM, 0.1 μM, 20 nM, 4 nM, 0.8 nM, respectively), and added with 2.5 μL/well to the test wells of the 96-well plate. After incubation at 25° C. for 10 minutes, 10 μM of ATP (purchased from Promega, No.: V9102) and 0.2 μg/μL of Poly E4Y1 (purchased from Sigma, No.: P0275-25MG) were added at 2.5 μL/well and reacted at 25° C. for 60 minutes. After the reaction was completed, 10 μL of the ADP-Glo reagent (ADP-Glo™ kinase assay kit, purchased from Promega, No.: V9102) was added to each well and reacted at 25° C. for 40 minutes. Then 20 μL of the ADP-Glo kinase detection reagent was added to each well and reacted at 25° C. for 30 minutes. The kinase activity was detected by luminescence using the ADP-Glo kinase assay kit according to the manufacture's instruction, and IC50 values of the compounds of the present invention were calculated.
(In ADP-Glo the light output rises with the ADP produced.)

The subject of a further assay is CTLL-2 cells. Put plainly: IL-2 induced CTLL-2 cell proliferation assay (CCK-8). The format is cell-based. To be noted: Mus musculus, IL-2 induced proliferation, 24 hours. As to the method:
The compounds of the present invention were serial diluted with RPMI-1640 complete medium (purchased from Gibco, No.: 22440) to three times (i.e., 3 μM, 0.6 μM, 120 nM, 24 nM, 4.8 nM, 0.96 nM, respectively) of the final concentrations (1 μM, 0.2 μM, 40 nM, 8 nM, 1.6 nM, 0.32 nM, respectively), and added at 50 μL/well to the test wells of a 96-well plate. Control wells with IL-2 (referred to as IL-2^+) (IL-2 was purchased from R & D, No.: 402-ML-020/CF) and without IL-2 (referred to as IL-2^−) (with addition of 50 μL of the medium). CTLL-2 cells (purchased from ATCC, No.: TIB-214) at the logarithmic growth phase were rinsed with PBS buffer (pH 7.2), then resuspended in RPMI-1640 complete medium without IL-2, and seeded at 50000 cells/50 μL/well in the 96-well plate. The plate was placed at 37° C., 5% CO2 and pre-incubated for 1 hour. Then, to the test wells and the IL-2^+ control well RPMI-1640 complete medium containing IL-2 (50 μL/well) was added, while to the IL-2^− control well RPMI-1640 complete medium without IL-2 (50 μL/well) was added. The cells were stimulated for 24 hours at 37° C., 5% CO2. After this, the 96-well plate was taken out from the incubator. […] Absorption was determined at 450 nm of wavelength, and IC50 values of the compounds of the present invention were thereby calculated.

In a further assay the target is T2, BTK kinase (Homo sapiens, UniProt Q06187).
T2 construct: purchased Invitrogen PV3363
T2 sequence (Q06187 whole entry): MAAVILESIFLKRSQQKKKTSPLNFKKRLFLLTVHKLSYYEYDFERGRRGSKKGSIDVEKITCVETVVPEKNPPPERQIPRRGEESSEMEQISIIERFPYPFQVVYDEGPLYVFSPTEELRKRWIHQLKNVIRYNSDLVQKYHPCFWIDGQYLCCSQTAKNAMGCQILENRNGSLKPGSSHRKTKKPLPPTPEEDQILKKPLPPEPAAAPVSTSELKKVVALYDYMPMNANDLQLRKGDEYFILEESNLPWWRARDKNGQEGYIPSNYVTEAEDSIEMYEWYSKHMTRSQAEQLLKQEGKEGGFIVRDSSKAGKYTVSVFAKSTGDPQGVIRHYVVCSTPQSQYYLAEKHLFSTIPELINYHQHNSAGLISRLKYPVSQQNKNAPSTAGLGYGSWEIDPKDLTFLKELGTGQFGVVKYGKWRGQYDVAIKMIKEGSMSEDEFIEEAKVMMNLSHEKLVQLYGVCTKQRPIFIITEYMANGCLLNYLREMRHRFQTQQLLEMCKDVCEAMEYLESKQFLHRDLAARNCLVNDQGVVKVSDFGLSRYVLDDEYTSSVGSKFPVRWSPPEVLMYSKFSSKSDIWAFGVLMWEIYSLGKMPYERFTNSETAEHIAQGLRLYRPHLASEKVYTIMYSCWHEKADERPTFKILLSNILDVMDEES
Kind of assay: BTK kinase activity inhibition assay (ADP-Glo). The format is biochemical. Conditions: ATP 50 μM. As to the method: The BTK kinase (purchased from Invitrogen, No.: PV3363) was diluted with reaction buffer (40 mM Tris-HCl, pH 7.5; 20 mM MgCl2, 0.1 mg/ml BSA; 1 mM DTT; 2 mM MnCl2) to 2 times of the final concentration (which is 1.1 ng/μL) and added with 5 μL/well to a 96-well plate. The compounds of the present invention were serial diluted with deionized water to four times (i.e., 40 μM, 4 μM, 0.4 μM, 80 nM, 16 nM, 3.2 nM, respectively) of the final concentrations (10 μM, 1 μM, 0.1 μM, 20 nM, 4 nM, 0.8 nM, respectively), and added at 2.5 μL/well to the test wells of the 96-well plate. After incubation at 25° C. for 10 minutes, ATP (50 μM) (purchased from Promega, No.: V9102) and 0.2 μg/μL of Poly E4Y1 (purchased from Sigma, No.: P0275-25MG) were added with 2.5 μL/well and incubated at 25° C. for 120 minutes. After the reaction was completed, 10 μL of the ADP-Glo reagent (ADP-Glo™ kinase assay kit, purchased from Promega, No.: V9102) was added to each well, and reacted at 25° C. for 40 minutes. Then 20 μL of the ADP-Glo kinase detection reagent was added to each well and reacted at 25° C. for 30 minutes. The kinase activity was detected by luminescence using the ADP-Glo kinase assay kit according to the manufacture's instruction, and IC50 values of the compounds of the present invention were calculated.

pIC50: −log10 of the molar value. Some results are limits rather than exact numbers.

T1 sequence (P52333 781-1124 limits assumed): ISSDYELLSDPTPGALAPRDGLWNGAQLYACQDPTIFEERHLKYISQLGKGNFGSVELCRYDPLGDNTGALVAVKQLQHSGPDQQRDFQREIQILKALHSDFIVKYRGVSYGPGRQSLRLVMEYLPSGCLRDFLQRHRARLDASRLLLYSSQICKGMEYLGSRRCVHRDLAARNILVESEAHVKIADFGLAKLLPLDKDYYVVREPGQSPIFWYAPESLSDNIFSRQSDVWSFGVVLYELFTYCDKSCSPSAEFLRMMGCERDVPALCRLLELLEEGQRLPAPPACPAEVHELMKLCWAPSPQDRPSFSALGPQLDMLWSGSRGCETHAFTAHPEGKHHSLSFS

Turning to `C=CC(=O)N1CCC[C@@H](Nc2nc(Nc3cc(C)ns3)nn3cccc23)C1` [Example 134, (R)-1-(3-((2-((3-methyl-isothiazol-5-yl)amino)pyrrolo[2,1-f][1,2,4]triazin-4-yl)amino)piperidin-1-yl)prop-2-en-1-one], the pIC50 is no less than 8.00 on JAK3 kinase, no less than 7.00 in the assay on CTLL-2 cells and no less than 7.30 at BTK kinase.

On to `C=CC(=O)N1CC[C@@H](Nc2nc(Nc3cc(C)ns3)nn3cccc23)C1` [Example 137], for which the pIC50 against JAK3 kinase was no less than 8.00; in the assay on CTLL-2 cells, 6.00 to 7.00; on BTK kinase, no less than 7.30.
